Like-named read-outs stand apart in the source and are kept apart here. Starred links: 1 amine or outer side, 2 acyl side, 3 side chain; linkers in the order of their positions; H or OH if unused. Non-standard residues stand in square brackets, D forms with d. Residues, ends and D or L forms follow the SMILES beside them. *: point of attachment. X1 = O=C(CCCC[C@@H]1SC[C@@H]2NC(=O)N[C@@H]21)NCCCOCCOCCOCCCN*; pT = C[C@@H](OP(=O)(O)O)[C@H](N)C(=O)O; Suc = O=C(CCC(=O)[*:2])[*:1]
Legend:
[1] = biological target: T1, 14-3-3σ (Homo sapiens, UniProt P31947); assay: biochemical; format: binding
T1 construct: cDNAs encoding other full-length 14-3-3 isoforms β, τ, η, and σ were obtained as codon-optimized; made in house; host or cells: E. coli BL21(DE3)
T1 sequence (P31947 1-248): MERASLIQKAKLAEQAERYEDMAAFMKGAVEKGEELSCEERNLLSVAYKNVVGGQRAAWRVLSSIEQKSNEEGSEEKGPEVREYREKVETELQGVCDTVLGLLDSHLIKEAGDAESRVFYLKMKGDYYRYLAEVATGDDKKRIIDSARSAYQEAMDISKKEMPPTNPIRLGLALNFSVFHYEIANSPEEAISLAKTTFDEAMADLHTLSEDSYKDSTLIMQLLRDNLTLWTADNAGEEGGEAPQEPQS
Experimental: (§1) The seven full-length human 14-3-3 isoforms, produced as fusions to a maltose-binding protein (MBP), were analyzed for their interaction with four phospho-PBMs from E6 proteins of HPV types 16, 18, 33, and 35 belonging to subgroups 1 and 2 (as defined in Supplementary Fig. 1). For comparison, we also measured two non-viral phospho-PBMs originating from protein kinase RSK1[28]. We used a competitive fluorescence polarization (FP) assay that measures the displacement of a fluorescent tracer phosphopeptide (here, derived from the HSPB6 protein) bound beforehand to 14-3-3, by an increasing amount of the peptide of interest.
(§2) For affinity measurements, full-length human 14-3-3 constructs with an N-terminal MBP fusion were used. Plasmids containing the cDNAs of the full-length 14-3-3 isoforms ε, γ, and ζ were received from Prof. Lawrence Banks. cDNAs encoding other full-length 14-3-3 isoforms β, τ, η, and σ were obtained as codon-optimized for E. coli expression synthetic genes from IDT Technologies (Coralville, Iowa, USA). All 14-3-3 isoforms were fused via a three-alanine linker to the C terminus of a mutant MBP carrying the following amino acid substitutions facilitating crystallization: D83A, K84A, K240A, E360A, K363A, and D364A[62]. All resulting clones were verified by sequencing. The MBP-fused proteins were expressed in E. coli BL21(DE3) with IPTG induction. Proteins were affinity purified on an amylose column and were further purified by ion-exchange chromatography (HiTrap Q HP, GE Healthcare). Unfused 14-3-3 isoforms devoid of the flexible C-terminal tails (14-3-3βΔC, 14-3-3τΔC 14-3-3εΔC) were expressed using IPTG induction and purified by subtractive IMAC and SEC[40]. Protein concentrations were determined by UV spectroscopy. The samples were supplemented with glycerol and TCEP before aliquoting and freezing in liquid nitrogen.
(§3) Unless otherwise stated, all phosphopeptide-binding measurements were performed using full-length 14-3-3 proteins fused to the C terminus of MBP, favoring optimal solubility and a standardized parallel purification scheme.
(§4) FP was measured with a PHERAstar (BMG Labtech, Offenburg, Germany) microplate reader by using 485 ± 20 and 528 ± 20 nm band-pass filters (for excitation and emission, respectively). In direct FP measurements, a dilution series of the 14-3-3 protein was prepared in 96-well plates (96-well skirted PCR plate, 4ti-0740, 4titude, Wotton, UK) in a 20 mM HEPES pH 7.5 buffer containing 150 mM NaCl, 0.5 mM TCEP, 0.01% Tween 20, 50 nM fluorescently labeled fpB6 peptide, and 100 μM FSC, if indicated. The volume of the dilution series was 40 μl, which was later divided into three technical replicates of 10 μl upon transferring to 384-well micro-plates (low binding microplate, 384 well, E18063G5, Greiner Bio-One, Kremsmünster, Austria). In total, polarization of the probe was measured at eight different protein concentrations (whereas one contained no protein and corresponded to the free peptide). In competitive FP measurements, the same buffer was supplemented with the protein to achieve a complex formation of 60–80%, based on the direct titration. Then, this mixture was used for creating a dilution series of the unlabeled competitor (i.e., the studied peptides) and the measurement was carried out identically as in the direct experiment.
(§5) All FP experiments were done in triplicates. Analysis of FP experiments were carried out using ProFit, an in-house developed, Python-based fitting program. ProFit utilizes a Monte Carlo approach to take into account experimental variability. It generates hundreds of simulated datasets, based on the experimental data variance and fits direct and competitive measurements in pairs.

[2] = biological target: T2, 14-3-3η (Homo sapiens, UniProt Q04917); assay: biochemical; format: binding
T2 construct: cDNAs encoding other full-length 14-3-3 isoforms β, τ, η, and σ were obtained as codon-optimized; made in house; host or cells: E. coli BL21(DE3)
T2 sequence (Q04917 1-246): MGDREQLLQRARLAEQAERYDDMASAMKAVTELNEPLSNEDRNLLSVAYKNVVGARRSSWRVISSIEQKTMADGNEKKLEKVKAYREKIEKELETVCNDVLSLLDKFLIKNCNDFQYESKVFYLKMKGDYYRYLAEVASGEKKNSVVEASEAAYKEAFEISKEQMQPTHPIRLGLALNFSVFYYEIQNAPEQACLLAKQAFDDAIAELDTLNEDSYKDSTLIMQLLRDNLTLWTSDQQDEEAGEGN
Experimental: as §1, §2, §3, §4, §5

[3] = biological target: T3, 14-3-3ε (Homo sapiens, UniProt P62258); assay: biochemical; format: binding
T3 construct: Plasmids containing the cDNAs of the full-length 14-3-3 isoforms ε, γ, and ζ were received; made in house; host or cells: E. coli BL21(DE3)
T3 sequence (P62258 1-255): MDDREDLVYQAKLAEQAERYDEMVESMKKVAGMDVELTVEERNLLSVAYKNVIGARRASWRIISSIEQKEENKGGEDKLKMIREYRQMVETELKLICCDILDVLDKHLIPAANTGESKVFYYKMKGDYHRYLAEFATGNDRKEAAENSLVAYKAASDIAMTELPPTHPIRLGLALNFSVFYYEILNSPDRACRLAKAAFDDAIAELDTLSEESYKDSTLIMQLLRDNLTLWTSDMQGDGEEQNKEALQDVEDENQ
Experimental: as §1, §2, §3, §4, §5

[4] = biological target: T4, 14-3-3τ (Homo sapiens, UniProt P27348); assay: biochemical; format: binding
T4 construct: cDNAs encoding other full-length 14-3-3 isoforms β, τ, η, and σ were obtained as codon-optimized; made in house; host or cells: E. coli BL21(DE3)
T4 sequence (P27348 1-245): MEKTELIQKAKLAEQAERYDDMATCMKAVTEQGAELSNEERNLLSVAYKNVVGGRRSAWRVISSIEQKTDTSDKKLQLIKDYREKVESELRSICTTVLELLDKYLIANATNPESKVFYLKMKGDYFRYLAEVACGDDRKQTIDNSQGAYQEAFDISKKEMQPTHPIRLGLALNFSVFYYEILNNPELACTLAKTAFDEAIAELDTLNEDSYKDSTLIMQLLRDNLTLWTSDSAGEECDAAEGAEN
Experimental: as §1, §2, §3, §4, §5

[5] = biological target: T5, 14-3-3ζ (Homo sapiens, UniProt P63104); assay: biochemical; format: binding
T5 construct: Plasmids containing the cDNAs of the full-length 14-3-3 isoforms ε, γ, and ζ were received; made in house; host or cells: E. coli BL21(DE3)
T5 sequence (P63104 1-245): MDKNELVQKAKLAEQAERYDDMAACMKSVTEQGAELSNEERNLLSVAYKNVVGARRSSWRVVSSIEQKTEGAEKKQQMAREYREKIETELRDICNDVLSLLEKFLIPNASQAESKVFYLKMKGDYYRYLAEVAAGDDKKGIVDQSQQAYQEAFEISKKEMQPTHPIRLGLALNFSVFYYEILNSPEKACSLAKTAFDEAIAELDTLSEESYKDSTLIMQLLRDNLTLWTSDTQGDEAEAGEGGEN
Experimental: as §1, §2, §3, §4, §5

[6] = biological target: T6, 14-3-3γ (Homo sapiens, UniProt P61981); assay: biochemical; format: binding
T6 construct: full-length human 14-3-3 constructs with an N-terminal MBP fusion were used; made in house; host or cells: E. coli BL21(DE3)
T6 sequence (P61981 1-247): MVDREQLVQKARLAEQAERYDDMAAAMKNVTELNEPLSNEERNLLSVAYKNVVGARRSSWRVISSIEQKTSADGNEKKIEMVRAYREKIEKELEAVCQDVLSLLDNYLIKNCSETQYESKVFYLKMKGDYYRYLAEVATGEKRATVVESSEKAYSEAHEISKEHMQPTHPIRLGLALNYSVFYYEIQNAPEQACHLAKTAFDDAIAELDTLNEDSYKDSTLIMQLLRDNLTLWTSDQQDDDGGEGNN
Experimental: as §1, §2, §3, §4, §5

[7] = biological target: T7, 14-3-3β (Homo sapiens, UniProt P31946); assay: biochemical; format: binding
T7 construct: cDNAs encoding other full-length 14-3-3 isoforms β, τ, η, and σ were obtained as codon-optimized; made in house; host or cells: E. coli BL21(DE3)
T7 sequence (P31946 1-246): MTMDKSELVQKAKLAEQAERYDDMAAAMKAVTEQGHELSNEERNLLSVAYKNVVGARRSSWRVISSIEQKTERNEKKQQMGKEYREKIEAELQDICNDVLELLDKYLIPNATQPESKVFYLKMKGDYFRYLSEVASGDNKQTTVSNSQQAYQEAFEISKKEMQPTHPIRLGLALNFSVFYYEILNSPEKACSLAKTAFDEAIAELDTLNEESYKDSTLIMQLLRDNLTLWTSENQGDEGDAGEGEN
Experimental: as §1, §2, §3, §4, §5

[8] = biological target: 14-3-3 isoforms; details: Figure 4 panel a, literature-curated motifs, unit from the colour scale line, cited from earlier work

Q: With `CC(C)[C@H](NC(=O)[C@H](C)NC(=O)[C@@H](NC(=O)[C@H](CCC(=O)O)NC(=O)[C@H](CCCNC(=N)N)NC(=O)[C@H](CCCNC(=N)N)NC(=O)[C@H](CCCNC(=N)N)NC(=O)[C@@H]1CCCN1C(=O)[C@H](CCCCN)NC(=O)[C@H](CO)NC(=O)CCC(=O)NCCCOCCOCCOCCCNC(=O)CCCC[C@@H]1SC[C@@H]2NC(=O)N[C@@H]21)[C@@H](C)OP(=O)(O)O)C(=O)O` [pHPV35E6T-6R, E-1A] ({X1-Suc}-SKPRRRE[pT]AV-OH) as the compound, how does the Kd [1] read?
A: 18.9 ± 1.9 µM

Q: And the Kd [2]?
A: 4.8 ± 0.5 µM

Q: And the Kd [3]?
A: 13 ± 2 µM

Q: And the Kd [4]?
A: 5.8 ± 0.4 µM

Q: What about the Kd [5] of the same compound?
A: 7.3 ± 0.4 µM

Q: What about the Kd [6] of the same compound?
A: 3.3 ± 0.2 µM

Q: What about the Kd [7] of the same compound?
A: 7.1 ± 0.5 µM

Q: For “C-Raf254-264 (RQRSTSTPNVH; UniProt P04049 254-264, looked up, fragment)”, which Kd ([8]; 14-3-3β, read-out: Binding affinities (KD) of various 14-3-3-binding motifs, 14-3-3β) is on record?
A: 9.5 µM

Q: And the Kd ([8]; 14-3-3γ, read-out: Binding affinities (KD) of various 14-3-3-binding motifs, 14-3-3γ)?
A: 3.7 µM

Q: What about the Kd ([8]; 14-3-3ε, read-out: Binding affinities (KD) of various 14-3-3-binding motifs, 14-3-3ε) of the same compound?
A: 15.1 µM

Q: What about the Kd ([8]; 14-3-3ζ, read-out: Binding affinities (KD) of various 14-3-3-binding motifs, 14-3-3ζ) of the same compound?
A: 16.6 µM

Q: What about the Kd ([8]; 14-3-3η, read-out: Binding affinities (KD) of various 14-3-3-binding motifs, 14-3-3η) of the same compound?
A: 6.3 µM

Q: And the Kd ([8]; 14-3-3σ, read-out: Binding affinities (KD) of various 14-3-3-binding motifs, 14-3-3σ)?
A: 67.1 µM

Q: And the Kd ([8]; 14-3-3τ, read-out: Binding affinities (KD) of various 14-3-3-binding motifs, 14-3-3τ)?
A: 26.6 µM

— paper PMC7961048, “Hierarchized phosphotarget binding by the seven human 14-3-3 isoforms” (Nature Communications, 2021)
